Results on eleven compounds are retold here after publication PMC3495162 (Journal of medicinal chemistry, 2012).

In one data set the test system is H146 cell line. The data set can be described thus: Cell death assay. The following applies: for Potency in induction of cell death relative to 1 and 2: H146, 24 hr. Format: cell-based.
Data set [1] relates to multiple xenograft tumor models. The settings on record: cited from earlier work.
For another data set, the target named is Mcl-1 (Homo sapiens, UniProt Q07820). In words: Fluorescence polarization competitive binding assay, Mcl-1. The settings on record: at concentrations as high as 5 μM. In general terms: Fluorescence polarisation rises when a labelled molecule tumbles more slowly, as on binding a larger partner.
For another data set, the target named is Bcl-xL (Homo sapiens, UniProt Q07817). In words: Fluorescence polarization competitive binding assay, Bcl-xL. The settings on record: for Times less potent than 5 in binding affinity to Bcl-xL: relative to compound 5.
The subject of data set [2] is H1417 small-cell lung cancer cell line. The data set can be described thus: Cell growth inhibition assay, H1417. In kind it is cell-based. The settings on record: for Times less potent than 30 and 31 in inhibition of cell growth, H1417: relative to compounds 30 and 31.
Data set [3] deals with H146 small-cell lung cancer cell line. The data set can be described thus: Cell growth inhibition assay, H146. In kind it is cell-based. The settings on record: for Times less potent than 30 and 31 in inhibition of cell growth, H146: relative to compounds 30 and 31.
A further data set concerns H146 cancer cells. In words: Western blot of PARP and caspase-3 cleavage in cells. The settings on record: 24 hr. In kind it is cell-based. A general note: In western blotting, separated proteins are transferred to a membrane and probed.
The test system of the next data set is H146 xenograft tumors. In words: Pharmacodynamics: PARP and caspase-3 cleavage in xenograft tumor tissue. In kind it is in vivo, SCID mice. The following applies: single i.v. dose, 28 at 50 mg/kg or 30 at 25 mg/kg; 3- and 6-h time-points.
Data set [4] has as its system H146 xenograft tumor model. The data set can be described thus: Antitumor efficacy in H146 xenograft tumor model. In kind it is in vivo, SCID mice. The settings on record: 28 at 50 mg/kg, 30 at 25 mg/kg, i.v., daily, 5 days a week for two weeks.
The nature of data set [5]: Maximum tolerated dose determination. The following applies: 75 mg/kg for 28, 50 mg/kg for 30, 25 mg/kg for 31.

What is called Ki is a measure of affinity in units of concentration, obtained from inhibition or displacement.

Molecules are shown by their SMILES. Entries after “also recorded” stand apart in the source; their conditions may differ.

Bcl-xL, sequence (Q07817 whole entry): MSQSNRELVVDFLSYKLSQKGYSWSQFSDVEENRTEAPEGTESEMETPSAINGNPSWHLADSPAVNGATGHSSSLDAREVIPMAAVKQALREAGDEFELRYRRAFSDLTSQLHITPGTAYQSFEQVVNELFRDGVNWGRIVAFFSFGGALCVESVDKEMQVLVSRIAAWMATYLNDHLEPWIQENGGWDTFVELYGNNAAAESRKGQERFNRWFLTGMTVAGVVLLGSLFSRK
Mcl-1, sequence (Q07820 whole entry): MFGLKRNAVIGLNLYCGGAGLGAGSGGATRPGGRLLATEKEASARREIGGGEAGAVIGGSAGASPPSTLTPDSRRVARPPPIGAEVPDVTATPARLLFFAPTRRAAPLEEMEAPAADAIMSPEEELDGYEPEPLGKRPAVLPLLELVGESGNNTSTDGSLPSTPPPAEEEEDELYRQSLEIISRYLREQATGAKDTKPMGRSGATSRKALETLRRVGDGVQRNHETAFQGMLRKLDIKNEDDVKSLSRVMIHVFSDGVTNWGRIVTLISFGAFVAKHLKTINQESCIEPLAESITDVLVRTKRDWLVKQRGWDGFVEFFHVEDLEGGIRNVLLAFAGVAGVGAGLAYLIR

For the compound `CN(C)CC[C@H](CSc1ccccc1)Nc1ccc(S(=O)(=O)NC(=O)c2ccc(N3CCN(Cc4ccccc4-c4ccc(Cl)cc4)CC3)cc2)cc1[N+](=O)[O-]` [Compound 1, reference compound], in the data set on H146 cell line (24 hr treatment, trypan blue), the “Concentration with a similar effect (>50% of H146 cells undergoing cell death)” value fell in the range of 30 to 100 nM. Further, the “Antitumor activity in xenograft tumor models” value in data set [1] is reported as “efficiently induce tumor regression”.
For `Cc1c(C(=O)O)c(-c2cccc(N3CCN(c4ccc(NS(=O)(=O)c5ccc(N[C@H](CCN(C)C)CSc6ccccc6)c([N+](=O)[O-])c5)cc4)CC3)c2)c(-c2ccc(Cl)cc2)n1C` [Compound 4], the “Binding to Mcl-1” value on Mcl-1 is reported as “no appreciable binding”. For the same compound, the inhibition constant Ki at Bcl-xL was under 1 nM.
As to `Cc1c(C(=O)NCCCN2CCN(C)CC2)c(-c2cccc(N3CCN(c4ccc(NS(=O)(=O)c5ccccc5)cc4)CC3)c2)c(-c2ccc(Cl)cc2)n1C` [Compound 6, 5-(4-Chlorophenyl)-1,2-dimethyl-N-(3-(4-methylpiperazin-1-yl)propyl)-4-(3-(4-(4-(phenylsulfonamido)phenyl)piperazin-1-yl)phenyl)-1H-pyrrole-3-carboxamide], on Bcl-xL, the “Times less potent than 5 in binding affinity to Bcl-xL” value was 30 times.
The same measure, in the same setting: under `Cc1c(C(=O)NCCCN2CCN(C)CC2)c(-c2cccc(N3CCN(c4ccc(NS(=O)(=O)c5cccc(Br)c5)cc4)CC3)c2)c(-c2ccc(Cl)cc2)n1C` [Compound 9, 5-(4-Chlorophenyl)-4-(3-(4-(4-(3-bromophenylsulfonamido)phenyl)piperazin-1-yl)phenyl) -1,2-dimethyl-N-(3-(4-methylpiperazin-1-yl)propyl)-1H-pyrrole-3-carboxamide] stands “slightly less potent than 5”; under `Cc1c(C(=O)NCCCN2CCN(C)CC2)c(-c2cccc(N3CCN(c4ccc(NS(=O)(=O)c5cccc(S(=O)(=O)C(F)(F)F)c5)cc4)CC3)c2)c(-c2ccc(Cl)cc2)n1C` [Compound 18, 5-(4-Chlorophenyl)-1,2-dimethyl-N-(3-(4-methylpiperazin-1-yl)propyl)-4-(3-(4-(4-(3-(trifluoromethylsulfonyl)phenylsulfonamido)phenyl)piperazin-1-yl)phenyl)-1H-pyrrole-3-carboxamide], “as potent as 5”.
`Cc1c(C(=O)O)c(-c2cccc(N3CCN(c4ccc(NS(=O)(=O)c5ccc(N[C@H](CCN(C)C)CSc6ccccc6)c(S(=O)(=O)C(F)(F)F)c5)cc4)CC3)c2)c(-c2ccc(Cl)cc2)n1C` [Compound 22, (R)-5-(4-Chlorophenyl)-4-(3-(4-(4-(4-(4-(dimethylamino)-1-(phenylthio)butan-2-ylamino)-3-(trifluoromethylsulfonyl)phenylsulfonamido)phenyl)piperazin-1-yl)phenyl)-1,2-dimethyl-1H-pyrrole-3-carboxylic Acid]: the “Binding to Mcl-1” value on Mcl-1 is recorded as “no appreciable binding”. Besides, the Ki on Bcl-xL was under 1 nM.
As for `Cc1c(C(=O)O)c(-c2cccc(N3CCN(c4ccc(NS(=O)(=O)c5ccc(N[C@H](CCN6CCOCC6)CSc6ccccc6)c(S(=O)(=O)C(F)(F)F)c5)cc4)CC3)c2)c(-c2ccc(Cl)cc2)n1C` [Compound 23, (R)-5-(4-Chlorophenyl)-1,2-dimethyl-4-(3-(4-(4-(4-(4-morpholino-1-(phenylthio)butan-2-ylamino)-3-(trifluoromethylsulfonyl)phenylsulfonamido)phenyl)piperazin-1-yl)phenyl)-1H-pyrrole-3-carboxylic Acid], the “Times less potent than 22 in inhibition of cell growth, H1417” value in [2] (relative to compound 22) is reported as 3–5 times. Besides, the “Times less potent than 22 in inhibition of cell growth, H146” value in data set [3] (relative to compound 22) is 3–5 times.
In the case of `Cc1c(C(=O)O)c(-c2cccc(N3CCN(c4ccc(NS(=O)(=O)c5ccc(N[C@H](CCN6CCC(O)CC6)CSc6ccccc6)c(S(=O)(=O)C(F)(F)F)c5)cc4)CC3)c2)c(-c2ccc(Cl)cc2)n1C` [Compound 28, (R)-5-(4-Chlorophenyl)-4-(3-(4-(4-(4-(4-(4-hydroxypiperidin-1-yl)-1-(phenylthio)butan-2-ylamino)-3-(trifluoromethylsulfonyl)phenylsulfonamido)phenyl)piperazin-1-yl)phenyl)-1,2-dimethyl-1H-pyrrole-3-carboxylic Acid], in the data set on H146 cell line, the “Potency in induction of cell death relative to 1 and 2” value was “somewhat less potent than 1 and 2”. Besides, in the data set with H146 cancer cells, the “Concentration inducing clear cleavage of PARP and activation of caspase-3” value is reported as 100 nM. For the same compound, the “Cleavage of PARP and caspase-3 in H146 tumor tissues” value in the data set with H146 xenograft tumors is “robust cleavage of PARP and caspase-3”. Also, in data set [4], the “Antitumor activity in H146 xenograft tumor model” value is “effective in inhibition of tumor growth; also recorded: effectively inhibits tumor growth, it fails to induce tumor regression” and the “Weight loss in tumor-bearing animals compared to the vehicle control” value is on record as “less than 10%”. For the same compound, in [5], the “Weight loss at higher doses” value was “more than 10%”. In addition, the inhibitory constant (Ki) on Bcl-xL was under 1 nM.
Turning to `Cc1c(C(=O)O)c(-c2cccc(N3CCN(c4ccc(NS(=O)(=O)c5ccc(N[C@H](CCN6CCC(O)CC6)CSc6ccccc6)c(S(=O)(=O)C(F)(F)F)c5)cc4)CC3)c2)c(-c2ccc(Cl)cc2)n1C(C)C` [Compound 31, (R)-5-(4-Chlorophenyl)-4-(3-(4-(4-(4-(4-(4-hydroxypiperidin-1-yl)-1-(phenylthio)butan-2-ylamino)-3-(trifluoromethylsulfonyl)phenylsulfonamido)phenyl)piperazin-1-yl)phenyl)-1-isopropyl-2-methyl-1H-pyrrole-3-carboxylic Acid], in the data set with H146 cell line, the “Potency in induction of cell death relative to 1 and 2” value is “several times more potent than 1 and 2”. Also, the “Weight loss at higher doses” value in data set [5] is “more than 10%”. The Ki at Bcl-xL was under 1 nM.
On to `CCCn1c(C)c(C(=O)O)c(-c2cccc(N3CCN(c4ccc(NS(=O)(=O)c5ccc(N[C@H](CCN6CCC(O)CC6)CSc6ccccc6)c(S(=O)(=O)C(F)(F)F)c5)cc4)CC3)c2)c1-c1ccc(Cl)cc1` [Compound 32, (R)-5-(4-Chlorophenyl)-4-(3-(4-(4-(4-(4-(4-hydroxypiperidin-1-yl)-1-(phenylthio)butan-2-ylamino)-3-(trifluoromethylsulfonyl)phenylsulfonamido)phenyl)piperazin-1-yl)phenyl)-2-methyl-1-propyl-1H-pyrrole-3-carboxylic Acid], for which, in [2], the “Times less potent than 30 and 31 in inhibition of cell growth, H1417” value is over 10 times. Moreover, in [3], the “Times less potent than 30 and 31 in inhibition of cell growth, H146” value is listed as over 10 times. The Ki on Bcl-xL was under 1 nM.
For `CCCCn1c(C)c(C(=O)O)c(-c2cccc(N3CCN(c4ccc(NS(=O)(=O)c5ccc(N[C@H](CCN6CCC(O)CC6)CSc6ccccc6)c(S(=O)(=O)C(F)(F)F)c5)cc4)CC3)c2)c1-c1ccc(Cl)cc1` [Compound 33, (R)-1-Butyl-5-(4-chlorophenyl)-4-(3-(4-(4-(4-(4-(4-hydroxypiperidin-1-yl)-1-(phenylthio)butan-2-ylamino)-3-(trifluoromethylsulfonyl)phenylsulfonamido)phenyl)piperazin-1-yl)phenyl)-2-methyl-1H-pyrrole-3-carboxylic acid], in data set [2], the “Times less potent than 30 and 31 in inhibition of cell growth, H1417” value was over 10 times. The “Times less potent than 30 and 31 in inhibition of cell growth, H146” value in data set [3] was over 10 times. Also, the Ki on Bcl-xL was under 1 nM.
